Tests used:
NAMPT = NAMPT (Homo sapiens, UniProt P43490); assay: NAMPT activity assay (coupled recombinant enzyme kit); format: biochemical; parameters: purchased Abcam ab221819; conditions: OD450 at 60 min, normalized by subtraction of DMSO value
Source text: We next tested whether Carba1 could activate NAMPT in vitro. To that aim, we used a commercial recombinant human enzyme assay containing four enzymes: NAMPT, NAM nucleotide adenylyltransferase 1 (NMNAT1), alcohol dehydrogenase (ADH), and diaphorase (see Materials and Methods). In the presence of NAM and 5-phosphoribosyl-1-pyrophosphate (PRPP), NAMPT converts NAM to NMN, which is then converted into NAD^+ by NMNAT1, while ADH converts NAD^+ to NADH. Then, into a coupled-reaction, diaphorase converts NADH into NAD^+ and tetrazolium salt WST-1 {4-[3-(4-iodophenyl)-2-(4-nitro-phenyl)-2H-5-tetrazolio]-1,3-benzene sulfonate} to formazan, which can be detected at optical density at 450 nm (OD450). In practice, we proceeded in two steps. First, Carba1 and the different tested compounds were incubated for 15 min with NAMPT, NMNAT1, NAM, and PRPP to allow NAD^+ production. The reaction was then stopped with FK866 before adding ADH and diaphorase to convert the NAD^+ produced to NADH, and absorbance was monitored at regular intervals.
NAMPT activity was measured using the commercial kit, NAMPT Activity Assay, according to the manufacturer’s instructions. […] A mixture of water-soluble tetrazolium salts (WST-1), ADH, diaphorase, and ethanol was added and the absorbance (OD450) measured for 90 min using the microplate reader ClarioSTAR (BMG Labtech).

HeLa cells = assay: 1H NMR metabolomic profiling of HeLa cells; format: cell-based, human; conditions: 12 μM, 2 hours
Experimental: HeLa cells (1 × 10^6) were seeded in Ø100-mm cell culture dishes and allowed to adhere for 48 hours. Cells were then treated with DMSO or 12 μM Carba1 for 2 hours at 37°C and 5% CO2. After treatment, the medium was removed, and cells were washed with PBS at R.T. before quenching with methanol at −20°C and scrapping ([70]). Dried extracts were obtained by evaporating the solvent under gentle N2 flow and stored at −80°C until analysis. For NMR, extracts were resuspended in 620 μl of 100% D2O phosphate buffer (pH 7.4), and 550 μl was transferred into 5-mm NMR tubes. Untargeted NMR analysis was performed at 27°C on a Bruker Avance IVDr spectrometer (600 MHz, ^1H resonance) with a conventional Broadband Inverse (BBI) probe. ^1H metabolic profiles were acquired using a NOESY experiment with water presaturation (Bruker pulse program noesygppr1d) and a spectral width of 11,904.792 Hz. Experimental parameters included a 10-ms mixing time, 2-s acquisition time, 3-s recycle delay, and 512 scans. The 90°s pulse length was calibrated at ~11.09 μs per sample after automatic shimming and tuning. NMR free induction decays were multiplied by an exponential function corresponding to a line broadening of 0.3 Hz before Fourier transform. […]

[1] = system: HeLa cells xenografted in mice; assay: HeLa tumor xenograft in nude mice; format: in vivo; conditions: PTX 8 mg/kg
Experimental: Five-week-old NMRI nude mice (Janvier Labs) were implanted with 10 × 10^6 HeLa cells (200 μl in PBS) on the right flank. On day 6, the mean tumor volume was 120 ± 4 mm^3. […] Behavior and signs of pain were monitored daily. Body weight and tumor volume were measured two to three times per week using electronic calipers, with tumor volume (in cubic millimeters) calculated as length (millimeters)/2 × width^2 (square millimeters). Tumor growth inhibition was analyzed using GraphPad Prism with one-way analysis of variance (ANOVA) and Dunn’s multiple comparisons test for treatment versus vehicle. Mice were euthanized on day 20, when the vehicle group reached ethical limits. Blood samples were collected by intracardiac puncture in EDTA-coated tubes for differential blood counts and hemograms, outsourced to IDEXX BioAnalytics. For biochemical analysis, blood was collected in heparin-lithium tubes, and plasma was isolated by centrifugation and frozen at −80°C. Plasma was analyzed using MS Scan II (Melet Schloesing) and VET16 reagent rotors to measure markers of renal and hepatic function, metabolism, and nutritional and muscular status. Differential counts, hemograms, and biochemical data were analyzed with GraphPad Prism using Kruskal-Wallis test and Dunn’s multiple comparisons test.

Chain of NAMPT (P43490 whole entry): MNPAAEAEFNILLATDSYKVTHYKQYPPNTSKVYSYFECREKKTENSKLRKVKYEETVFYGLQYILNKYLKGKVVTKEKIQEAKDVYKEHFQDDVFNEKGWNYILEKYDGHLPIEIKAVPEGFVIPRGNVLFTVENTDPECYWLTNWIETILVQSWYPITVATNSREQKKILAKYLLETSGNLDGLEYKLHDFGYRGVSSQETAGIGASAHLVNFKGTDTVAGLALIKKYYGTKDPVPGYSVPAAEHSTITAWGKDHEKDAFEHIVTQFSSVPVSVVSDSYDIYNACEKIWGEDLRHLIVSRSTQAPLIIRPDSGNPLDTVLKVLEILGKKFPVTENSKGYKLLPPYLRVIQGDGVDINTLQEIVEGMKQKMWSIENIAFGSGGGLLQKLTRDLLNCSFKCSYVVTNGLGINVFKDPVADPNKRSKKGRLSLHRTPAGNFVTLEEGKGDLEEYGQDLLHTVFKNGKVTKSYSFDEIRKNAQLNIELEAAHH

## Cc1cc(-n2cccc2)c(C)c2c1[nH]c1ccc(Cl)cc12 [Compound 1]
NAMPT
  activation of NAMPT in vitro: enhanced NAMPT activity in a dose-dependent manner
HeLa cells
  GTP levels: significant increase
  NAD+ abundance: significant decrease
[1]; i.v. every 2 days, Carba1 60 mg/kg alone or with PTX
  tumor size: no significant tumor size changes
[1]; i.v., Carba1 60 mg/kg, or combination
  toxicity (blood counts, markers of renal or hepatic function): no detectable toxicity

Reference: publication PMC12571071, “Preventing neuropathy and improving anticancer chemotherapy with a carbazole-based compound” (Science Advances, 2025)
